From patent EP4060021A1, “MIMETIC MICROBIOLOGICAL CULTURE MEDIUM AND USES THEREOF” (BIOFILM PHARMA, priority 2021, dated 2022)
Converted amounts (≈) assume the structure as drawn.

Tests used:
[1] = system: souches de S. aureus issues de prélèvements de plaies du pied infectées chez des patients diabétiques; test: Antibiotic susceptibility test (MIC, 96-well microplate, OD 600 nm) in Mueller-Hinton medium (MH); format: cell-based; design: key to Classification (S) ou (R) en MH: S (sensible); R (résistante); conditions: for MIC: Staphylococcus aureus, read-out: CMI en milieu MH
Excerpt: (§1) • La Figure 1 représente des courbes de croissance de bactéries en fonction du milieu de culture. Sur cette figure, les ordonnées correspondent au logarithme d'unités formant colonie par millilitre de milieu de culture (Log UFC/ml) et les abscisses, au temps en heure (H). La Figure 1A représente les courbes correspondant à la croissance de 2 souches de S. aureus, Newman (gauche) et SAC1 (droite), dans le milieu BHI (courbe avec indicateurs ronds) et un exemple de milieu selon l'invention (MP) (courbe avec indicateurs carrés). La Figure 1B représente les courbes correspondant à la croissance de 2 souches de P. aeruginosa, PAO1 (gauche) et PAC1 (droite), dans le milieu BHI (courbe avec indicateurs ronds) et un exemple de milieu selon l'invention (MP) (courbe avec indicateurs carrés). La Figure 1C représente les courbes correspondant à la croissance de 2 souches cliniques S. aureus SAC1 et P. aeruginosa PAC1, en coculture dans le milieu BHI (P. aeruginosa BHI ou S. aureus BHI) et un exemple de milieu selon l'invention (MP) (P. aeruginosa MP ou S. aureus MP). La mesure de différence significative, réalisée par le test de Student, entre les valeurs d'UFC/mL est exprimée, soit par (***) qui correspond à une p-value <0,001, soit par (**) qui correspond à une p-value <0,01. • La Figure 2 représente les résultats obtenus d'une détermination de l'adhésion et de la formation de biofilm par dénombrement à 24h. Sur cette figure, les ordonnées correspondent au logarithme d'unités formant colonie par millilitre de milieu de culture (Log UFC/ml). La Figure 2A représente un histogramme ou diagramme en bâton du nombre de bactéries dénombrées suite à des cultures séparées de souche S. aureus Newman (Newman), S. aureus SAC1 (SAC 1), P. aeruginosa PAO1 (PAO1) ou P. aeruginosa PAC1 (PAC1), pendant 24H dans un milieu BHI (BHI) (bâtons noirs) ou dans un exemple de milieu selon l'invention (MP) (bâtons gris). La Figure 2B montre sous forme d'histogramme le nombre de bactéries dénombrées suite à des co-cultures des souches de référence S. aureus Newman et P. aeruginosa PAO1 (PAO1/Newman), ainsi que du couple de souches cliniques S. aureus SAC1 et P. aeruginosa PAC1 (PAC 1/SAC1), pendant 24H dans un milieu BHI (BHI) (bâtons noirs) ou dans un exemple de milieu selon l'invention (MP) (bâtons gris). La mesure de différence significative, réalisée par le test de Student, entre les valeurs d'UFC est exprimée, soit par (***) qui correspond à une p-value <0,001, soit par (**) qui correspond à une p-value <0,01. • La Figure 3 représente les résultats obtenus d'une détermination de sensibilité à des antibiotiques de souches cliniques de S. aureus issues d'infections de plaies du pied chez le diabétique. Les données cliniques, anonymisées, nécessaires à l'interprétation des résultats, consistaient en l'antibiothérapie donnée au patient, ainsi que la qualification par les médecins hospitaliers d'un succès ou échec thérapeutique. La définition de succès ou échec thérapeutique est définie comme suit. Le patient commence et suit l'antibiothérapie prescrite et un deuxième prélèvement microbiologique est effectué lors du dernier jour de traitement de la 1ère antibiothérapie (± 2 jours). Ce prélèvement est utilisé pour déterminer la présence/absence du pathogène ciblé par l'antibiothérapie, S. aureus. Si ce prélèvement a montré la persistance d'un S. aureus, l'antibiothérapie est en échec. A l'inverse, en cas d'absence de S. aureus, l'antibiothérapie est associée à un succès thérapeutique. Les antibiogrammes ont été réalisés classiquement sur une durée de 18h ± 2h en accord avec les recommandations de l'EUCAST. Une gamme de l'antibiotique à tester a été réalisée. • La Figure 3A montre sous forme d'histogramme les résultats des CMI déduites d'antibiogrammes sur 11 souches testées en présence d'amoxicilline / clavulanate de potassium (commercialisé par exemple sous le nom d'Augmentin (marque déposée)).

[2] = system: souches de S. aureus issues de prélèvements de plaies du pied infectées chez des patients diabétiques; test: Antibiotic susceptibility test (MIC, 96-well microplate, OD 600 nm) in wound medium of the invention (MP); format: cell-based; conditions: for MIC: Staphylococcus aureus, read-out: CMI en milieu plaie MP
Excerpt: as §1

CCC[C@@H]1C[C@@H](C(=O)N[C@@H]([C@H]2O[C@H](SC)[C@H](O)[C@@H](O)[C@H]2O)[C@H](C)Cl)N(C)C1 [clindamycine]
MIC ([1]; souche C01P009): 0.25 µg/mL (≈ 0.588 µM)
MIC ([1]; souche C01P010): 0.25 µg/mL (≈ 0.588 µM)
MIC ([1]; souche C03P003): 0.25 µg/mL (≈ 0.588 µM)
MIC ([1]; souche C03P004): 0.25 µg/mL (≈ 0.588 µM)
MIC ([1]; souche C03P005): 0.25 µg/mL (≈ 0.588 µM)
MIC ([1]; souche C03P009): 0.5 µg/mL (≈ 1.18 µM)
Classification (S) ou (R) en MH ([1]; souche C01P009): (S)
Classification (S) ou (R) en MH ([1]; souche C01P010): (S)
Classification (S) ou (R) en MH ([1]; souche C03P003): (S)
Classification (S) ou (R) en MH ([1]; souche C03P004): (S)
Classification (S) ou (R) en MH ([1]; souche C03P005): (S)
Classification (S) ou (R) en MH ([1]; souche C03P009): (S)
MIC ([2]; souche C01P009): 0.25 µg/mL (≈ 0.588 µM)
MIC ([2]; souche C01P010): 2 µg/mL (≈ 4.71 µM)
MIC ([2]; souche C03P003): 0.25 µg/mL (≈ 0.588 µM)
MIC ([2]; souche C03P004): 0.25 µg/mL (≈ 0.588 µM)
MIC ([2]; souche C03P005): 1 µg/mL (≈ 2.35 µM)
MIC ([2]; souche C03P009): 0.5 µg/mL (≈ 1.18 µM)
Classification (S) ou (R) en MP ([2]; souche C01P009): (S) (valeur de CMI mesurée dans un milieu plaie, exemple de milieu selon l'invention (MP) inférieure ou égale au seuil déterminé et peuvent être classifiées comme sensibles (noté S dans le tableau 5C))
Classification (S) ou (R) en MP ([2]; souche C01P010): (R) (valeur de CMI mesurée dans un milieu plaie, exemple de milieu selon l'invention (MP), supérieure au seuil et peuvent être classifiées comme résistantes (noté R dans le tableau 5C))
Classification (S) ou (R) en MP ([2]; souche C03P003): (S) (valeur de CMI mesurée dans un milieu plaie, exemple de milieu selon l'invention (MP) inférieure ou égale au seuil déterminé et peuvent être classifiées comme sensibles (noté S dans le tableau 5C))
Classification (S) ou (R) en MP ([2]; souche C03P004): (S) (valeur de CMI mesurée dans un milieu plaie, exemple de milieu selon l'invention (MP) inférieure ou égale au seuil déterminé et peuvent être classifiées comme sensibles (noté S dans le tableau 5C))
Classification (S) ou (R) en MP ([2]; souche C03P005): (R) (valeur de CMI mesurée dans un milieu plaie, exemple de milieu selon l'invention (MP), supérieure au seuil et peuvent être classifiées comme résistantes (noté R dans le tableau 5C))
Classification (S) ou (R) en MP ([2]; souche C03P009): (S) (valeur de CMI mesurée dans un milieu plaie, exemple de milieu selon l'invention (MP) inférieure ou égale au seuil déterminé et peuvent être classifiées comme sensibles (noté S dans le tableau 5C))

amoxicilline / clavulanate de potassium [amoxicilline/clavulanate de potassium]
CMI en milieu MH ([1]; souche C01P012): 0,25 mg/L / µg/L
Classification (S) ou (R) en MH ([1]; souche C01P012): (S)
CMI en milieu MH ([1]; souche C03P001): 0,25 mg/L / µg/L
Classification (S) ou (R) en MH ([1]; souche C03P001): (S)
CMI en milieu MH ([1]; souche C03P008): 0,5 mg/L / µg/L
Classification (S) ou (R) en MH ([1]; souche C03P008): (S)
CMI en milieu MH ([1]; souche C04P003): 0,25 mg/L / µg/L
Classification (S) ou (R) en MH ([1]; souche C04P003): (S)
CMI en milieu MH ([1]; souche C04P005f): 0,5 mg/L / µg/L
Classification (S) ou (R) en MH ([1]; souche C04P005f): (S)
CMI en milieu MH ([1]; souche C04P005i): 0,5 mg/L / µg/L
Classification (S) ou (R) en MH ([1]; souche C04P005i): (S)
CMI en milieu MH ([1]; souche C04P007): 0,25 mg/L / µg/L
Classification (S) ou (R) en MH ([1]; souche C04P007): (S)
CMI en milieu MH ([1]; souche C06P001f): 0,25 mg/L / µg/L
Classification (S) ou (R) en MH ([1]; souche C06P001f): (S)
CMI en milieu MH ([1]; souche C06P001 i): 0,25 mg/L / µg/L
Classification (S) ou (R) en MH ([1]; souche C06P001 i): (S)
CMI en milieu MH ([1]; souche C06P003f): 0,25 mg/L / µg/L
Classification (S) ou (R) en MH ([1]; souche C06P003f): (S)
CMI en milieu MH ([1]; souche C06P003i): 0,25 mg/L / µg/L
Classification (S) ou (R) en MH ([1]; souche C06P003i): (S)
CMI en milieu plaie MP ([2]; souche C01P012): 0,25 mg/L / µg/L
Classification (S) ou (R) en MP ([2]; souche C01P012): (S) (valeur de CMI mesurés dans l'exemple de milieu selon l'invention (MP), inférieure ou égale au seuil et ont été et peuvent être classifiées comme sensibles (noté S dans le tableau 5A))
CMI en milieu plaie MP ([2]; souche C03P001): 0,5 mg/L / µg/L
Classification (S) ou (R) en MP ([2]; souche C03P001): (S) (valeur de CMI mesurés dans l'exemple de milieu selon l'invention (MP), inférieure ou égale au seuil et ont été et peuvent être classifiées comme sensibles (noté S dans le tableau 5A))
CMI en milieu plaie MP ([2]; souche C03P008): 1 mg/L / µg/L
Classification (S) ou (R) en MP ([2]; souche C03P008): (R) (valeur de CMI mesurée dans l'exemple de milieu selon l'invention (MP) supérieure au seuil et peuvent être classifiées comme résistantes (noté R dans le tableau 5A))
CMI en milieu plaie MP ([2]; souche C04P003): 0,25 mg/L / µg/L
Classification (S) ou (R) en MP ([2]; souche C04P003): (S) (valeur de CMI mesurés dans l'exemple de milieu selon l'invention (MP), inférieure ou égale au seuil et ont été et peuvent être classifiées comme sensibles (noté S dans le tableau 5A))
CMI en milieu plaie MP ([2]; souche C04P005f): 0,5 mg/L / µg/L
Classification (S) ou (R) en MP ([2]; souche C04P005f): (S) (valeur de CMI mesurés dans l'exemple de milieu selon l'invention (MP), inférieure ou égale au seuil et ont été et peuvent être classifiées comme sensibles (noté S dans le tableau 5A))
CMI en milieu plaie MP ([2]; souche C04P005i): 0,5 mg/L / µg/L
Classification (S) ou (R) en MP ([2]; souche C04P005i): (S) (valeur de CMI mesurés dans l'exemple de milieu selon l'invention (MP), inférieure ou égale au seuil et ont été et peuvent être classifiées comme sensibles (noté S dans le tableau 5A))
CMI en milieu plaie MP ([2]; souche C04P007): 1 mg/L / µg/L
Classification (S) ou (R) en MP ([2]; souche C04P007): (R) (valeur de CMI mesurée dans l'exemple de milieu selon l'invention (MP) supérieure au seuil et peuvent être classifiées comme résistantes (noté R dans le tableau 5A))
CMI en milieu plaie MP ([2]; souche C06P001f): 2 mg/L / µg/L
Classification (S) ou (R) en MP ([2]; souche C06P001f): (R) (valeur de CMI mesurée dans l'exemple de milieu selon l'invention (MP) supérieure au seuil et peuvent être classifiées comme résistantes (noté R dans le tableau 5A))
CMI en milieu plaie MP ([2]; souche C06P001 i): 4 mg/L / µg/L
Classification (S) ou (R) en MP ([2]; souche C06P001 i): (R) (valeur de CMI mesurée dans l'exemple de milieu selon l'invention (MP) supérieure au seuil et peuvent être classifiées comme résistantes (noté R dans le tableau 5A))
CMI en milieu plaie MP ([2]; souche C06P003f): 1 mg/L / µg/L
Classification (S) ou (R) en MP ([2]; souche C06P003f): (R) (valeur de CMI mesurée dans l'exemple de milieu selon l'invention (MP) supérieure au seuil et peuvent être classifiées comme résistantes (noté R dans le tableau 5A))
CMI en milieu plaie MP ([2]; souche C06P003i): 2 mg/L / µg/L
Classification (S) ou (R) en MP ([2]; souche C06P003i): (R) (valeur de CMI mesurée dans l'exemple de milieu selon l'invention (MP) supérieure au seuil et peuvent être classifiées comme résistantes (noté R dans le tableau 5A))
